Source: the supplement of paper PMC11061612

Assays:
Experiment in all cases: combination Emax (second highest fraction inhibited in the dose matrix, 72 h); higher = more inhibition; extreme values may be limits of the assay
[1] = test system: SNU-16 (Gastric Carcinoma)
Outline: (§1)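 Cell lines in DMEM/F12 or RPMI with 10% FBS were plated in 1536-well plates, held 24 hours at 37°C, 5% CO2, then given two-drug dose matrices for 72 hours (DMSO typically 0.2%). Viability was read by CellTiter-Glo 2.0 luminescence and scaled as inhibition from 0 (vehicle wells) to 1 (blank wells). Combination Emax is the second-highest inhibition in the matrix; Bliss excess is observed combination effect minus expected EA + EB − EA·EB, EA and EB being single-agent effects.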

[2] = test system: SW1710 (Bladder Carcinoma)
Outline: as §1

[3] = test system: SW1573 (Lung Adenocarcinoma)
Outline: as §1

[4] = test system: SNU-449 (Hepatocellular Carcinoma)
Outline: as §1

[5] = test system: OV-56 (Ovarian Carcinoma)
Outline: as §1

[6] = test system: ESS-1 (Other Solid Carcinomas)
Outline: as §1

[7] = test system: BFTC-909 (Kidney Carcinoma)
Outline: as §1

[8] = test system: SAS (Oral Cavity Carcinoma)
Outline: as §1

[9] = test system: HH (T-Cell Non-Hodgkin's Lymphoma)
Outline: as §1

[10] = test system: HeLa (Cervical Carcinoma)
Outline: as §1

[11] = test system: OE21 (Esophageal Squamous Cell Carcinoma)
Outline: as §1

CAL-72 (Osteosarcoma) = test system: CAL-72 (Osteosarcoma)
Outline: as §1

EW-11 (Ewing's Sarcoma) = test system: EW-11 (Ewing's Sarcoma)
Outline: as §1

[12] = test system: WSU-NHL (B-Cell Non-Hodgkin's Lymphoma)
Outline: as §1

[13] = test system: Hs-746T (Gastric Carcinoma)
Outline: as §1

[14] = test system: TGBC1TKB (Biliary Tract Carcinoma)
Outline: as §1

[15] = test system: NCI-H524 (Small Cell Lung Carcinoma)
Outline: as §1

[16] = test system: CAL-33 (Oral Cavity Carcinoma)
Outline: as §1

BE2-M17 (Neuroblastoma) = test system: BE2-M17 (Neuroblastoma)
Outline: as §1

[17] = test system: LNZTA3WT4 (Low Grade Glioma)
Outline: as §1

SMILES | combination Emax [1] | combination Emax [2] | combination Emax [3] | combination Emax [4] | combination Emax [5] | combination Emax [6] | combination Emax [7] | combination Emax [8] | combination Emax [9] | combination Emax [10] | combination Emax [11] | combination Emax (CAL-72 (Osteosarcoma)) | combination Emax (EW-11 (Ewing's Sarcoma)) | combination Emax [12] | combination Emax [13] | combination Emax [14] | combination Emax [15] | combination Emax [16] | combination Emax (BE2-M17 (Neuroblastoma)) | combination Emax [17]
CC1(C)CCC(CN2CCN(c3ccc(C(=O)NS(=O)(=O)c4ccc(NCC5CCOCC5)c([N+](=O)[O-])c4)c(Oc4cnc5[nH]ccc5c4)c3)CC2)=C(c2ccc(Cl)cc2)C1 [Venetoclax] + COc1cc(Nc2ncc3c(n2)-c2ccc(Cl)cc2C(c2c(F)cccc2OC)=NC3)ccc1C(=O)O [Alisertib] (first compound max 1 µM, 7x7, partner max 10 µM) | 0.955 | 0.306 | 0.168 | 0.313 | 0.225 | 0.957 | 0.502 | 0.39 | 0.222 | 0.702 | 0.382 | 0.591 | 0.649 | 0.985 | 0.65 | 0.403 | 0.991 | 0.714 | 0.901 | 0.472
C[C@@H]1COCCN1c1cc(C2([S@](C)(=N)=O)CC2)nc(-c2ccnc3[nH]ccc23)n1 [AZD6738] + O=C(c1cc(Cc2n[nH]c(=O)c3ccccc23)ccc1F)N1CCN(C(=O)C2CC2)CC1 [Olaparib] (first compound max 10 µM, 7x7, partner max 10 µM) | 0.956 | 0.495 | 0.217 | 0.234 | 0.69 | 0.979 | 0.728 | 0.839 | 0.209 | 0.713 | 0.661 | 0.8 | 0.72 | 0.989 | 0.582 | 0.397 | 0.746 | 0.763 | 0.74 | 0.778
CN(C)CCCOc1ccc(-c2ccc3ncc4c(c3c2)n(C2CCOCC2)c(=O)n4C)cn1 [AZD0156] + C[C@@H]1COCCN1C2=NC(=NC(=C2)C3(CC3)[S@](=N)(=O)C)C4=C5C=CNC5=NC=C4 [AZD6738] (first compound max 1 µM, 7x7, partner max 10 µM) | 0.982 | 0.509 | 0.196 | 0.176 | 0.741 | 0.989 | 0.813 | 0.855 | 0.427 | 0.679 | 0.696 | 0.889 | 0.668 | 0.998 | 0.636 | 0.397 | 0.858 | 0.782 | 0.928 | 0.778
Cn1cnc2c(F)c(Nc3ccc(Br)cc3Cl)c(C(=O)NOCCO)cc21 [Selumetinib] + C[C@@H]1COCCN1C2=NC(=NC(=C2)C3(CC3)[S@](=N)(=O)C)C4=C5C=CNC5=NC=C4 [AZD6738] (first compound max 10 µM, 7x7, partner max 10 µM) | 0.966 | 0.26 | 0.284 | 0.111 | 0.29 | 0.953 | 0.797 | 0.806 | 0.175 | 0.486 | 0.837 | 0.752 | 0.592 | 0.817 | 0.579 | 0.347 | 0.681 | 0.826 | 0.83 | 0.712
CC1(C)CCC(CN2CCN(c3ccc(C(=O)NS(=O)(=O)c4ccc(NCC5CCOCC5)c([N+](=O)[O-])c4)c(Oc4cnc5[nH]ccc5c4)c3)CC2)=C(c2ccc(Cl)cc2)C1 [Venetoclax] + Cn1cnc2c(F)c(Nc3ccc(Br)cc3Cl)c(C(=O)NOCCO)cc21 [Selumetinib] (first compound max 1 µM, 7x7, partner max 3 µM) | 0.241 | 0.216 | 0.0752 | 0.109 | 0.108 | 0.864 | 0.23 | 0.368 | 0.132 | 0.103 | 0.337 | 0.403 | 0.451 | 0.745 | 0.242 | 0.167 | 0.113 | 0.266 | 0.635 | 0.308
NC1(C(=O)N[C@@H](CCO)c2ccc(Cl)cc2)CCN(c2ncnc3[nH]ccc23)CC1 [Capivasertib] + CCN(CCO)CCCOc1ccc2c(Nc3cc(CC(=O)Nc4cccc(F)c4)[nH]n3)ncnc2c1 [AZD2811] (first compound max 10 µM, 7x7, partner max 1 µM) | 0.663 | 0.36 | 0.374 | 0.187 | 0.249 | 0.812 | 0.638 | 0.299 | 0.281 | 0.23 | 0.642 | 0.321 | 0.611 | 0.966 | 0.403 | 0.298 | 0.992 | 0.897 | 0.493 | 0.475
COc1nnc2ccc(N3CCC(c4ccc(OCCN5CCN(C)C(=O)[C@H]5C)cc4)CC3)nn12 [AZD5153] + Cn1cnc2c(F)c(Nc3ccc(Br)cc3Cl)c(C(=O)NOCCO)cc21 [Selumetinib] (first compound max 1 µM, 7x7, partner max 10 µM) | 0.902 | 0.441 | 0.577 | 0.243 | 0.336 | 0.585 | 0.488 | 0.86 | 0.42 | 0.411 | 0.861 | 0.389 | 0.424 | 0.954 | 0.731 | 0.37 | 0.575 | 0.708 | 0.825 | 0.383
Cc1c2c(nn1C)CSCc1cc(n(C)n1)CSc1cc(c3ccccc3c1)OCCCc1c(C(=O)O)n(C)c3c-2c(Cl)ccc13 [AZD5991] + Cn1cnc2c(F)c(Nc3ccc(Br)cc3Cl)c(C(=O)NOCCO)cc21 [Selumetinib] (first compound max 1 µM, 7x7, partner max 3 µM) | 0.989 | 0.256 | 0.169 | 0.246 | 0.189 | 0.224 | 0.3 | 0.44 | 0.714 | 0.496 | 0.469 | 0.406 | 0.76 | 0.934 | 0.422 | 0.187 | 0.336 | 0.411 | 0.956 | 0.237
CN(CCO)CC[C@H](CSc1ccccc1)Nc1ccc(S(=O)(=O)NC(=O)c2ccc(N3CCC([C@@H](O)c4ccccc4-c4ccc(Cl)cc4)CC3)cc2)cc1S(=O)(=O)C(F)(F)F [AZD4320] + Cn1cnc2c(F)c(Nc3ccc(Br)cc3Cl)c(C(=O)NOCCO)cc21 [Selumetinib] (first compound max 1 µM, 7x7, partner max 3 µM) | 0.649 | 0.315 | 0.575 | 0.221 | 0.304 | 0.851 | 0.473 | 0.83 | 0.3 | 0.397 | 0.413 | 0.51 | 0.934 | 0.885 | 0.77 | 0.679 | 0.84 | 0.701 | 0.852 | 0.329
CCN(CCO)CCCOc1ccc2c(Nc3cc(CC(=O)Nc4cccc(F)c4)[nH]n3)ncnc2c1 [AZD2811] + O=C(c1cc(Cc2n[nH]c(=O)c3ccccc23)ccc1F)N1CCN(C(=O)C2CC2)CC1 [Olaparib] (first compound max 1 µM, 7x7, partner max 10 µM) | 0.705 | 0.185 | 0.221 | 0.205 | 0.179 | 0.63 | 0.221 | 0.197 | 0.0537 | 0.293 | 0.255 | 0.322 | 0.564 | 0.931 | 0.232 | 0.0912 | 0.945 | 0.732 | 0.354 | 0.223
NC1(C(=O)N[C@@H](CCO)c2ccc(Cl)cc2)CCN(c2ncnc3[nH]ccc23)CC1 [Capivasertib] + CC(=O)c1c(C)c2cnc(Nc3ccc(N4CCNCC4)cn3)nc2n(C2CCCC2)c1=O [Palbociclib] (first compound max 10 µM, 7x7, partner max 10 µM) | 0.623 | 0.447 | 0.382 | 0.379 | 0.41 | 0.593 | 0.704 | 0.575 | 0.426 | 0.196 | 0.714 | 0.481 | 0.496 | 0.899 | 0.588 | 0.344 | 0.666 | 0.499 | 0.463 | 0.562
Cc1c2c(nn1C)CSCc1cc(n(C)n1)CSc1cc(c3ccccc3c1)OCCCc1c(C(=O)O)n(C)c3c-2c(Cl)ccc13 [AZD5991] + Cc1cc2ncnn2cc1Nc1ncc2c(n1)n(C1CCOCC1)c(=O)n2C [AZD7648] (first compound max 1 µM, 7x7, partner max 10 µM) | 0.999 | 0.177 | 0.19 | 0.238 | 0.189 | 0.407 | 0.292 | 0.286 | 0.71 | 0.485 | 0.385 | 0.523 | 0.837 | 0.952 | 0.319 | 0.319 | 0.501 | 0.302 | 0.9 | 0.318
Cc1c2c(nn1C)CSCc1cc(n(C)n1)CSc1cc(c3ccccc3c1)OCCCc1c(C(=O)O)n(C)c3c-2c(Cl)ccc13 [AZD5991] + CCN(CCO)CCCOc1ccc2c(Nc3cc(CC(=O)Nc4cccc(F)c4)[nH]n3)ncnc2c1 [AZD2811] (first compound max 1 µM, 7x7, partner max 1 µM) | 0.996 | 0.228 | 0.321 | 0.282 | 0.2 | 0.733 | 0.438 | 0.268 | 0.728 | 0.763 | 0.522 | 0.473 | 0.872 | 0.92 | 0.257 | 0.192 | 1 | 0.911 | 0.905 | 0.256
